Results taken from patent US6476036B1, “Sodium salt of 3-(4-cinnamyl-1-piperazinyl)-imino-methyl rifamycin SV” (priority 1998, dated 2002).
Like-named read-outs stand apart in the source and are kept apart here.

Key:
[1] = rat, in vivo, 20 mg/kg
Solubility = format: physicochemical; conditions: water and organic solvents
Description: 4,62 g (0,005 g/moll) of 3-(4-cinnamyl-1-piperazinyl)-iminomethyl rifamycin SV is suspended in 40 ml methanol and 0,1 g sodium ascorbate dissolved in 1 ml water is added. To the obtained suspension 0,9 ml of 30% methanol solution of sodium methylate (equimolar quantity) is added. The suspension immediately turns into a solution because of the formation of the sodium salt. The reaction mixture is filtered to remove the unsolved sediment of sodium ascorbate, and the solvent is concentratrated in vacuum and dried to give the soduim salt as a dark-red solid powder. This product has high purity and the yield is practically quantitative.

[2] = mice; cited from earlier work
[3] = rabbit, in vivo, 20 mg/kg
[4] = Non-model pharmacokinetics in mice; conditions: base 20 mg/kg
[5] = mouse, in vivo, 20 mg/kg
generalized tuberculosis = conditions: doses 10 mg/kg, after 60 days of treatment, test animals; cited from earlier work
[6] = test system: Gram-positive microorganisms including aerobic, anaerobic and Mycobacterium (typical and atypical); assay: In vitro antibacterial activity; format: cell-based; conditions: in comparison with the initial compound T-9
[7] = Stability of water solutions; format: physicochemical

CO[C@H]1/C=C/O[C@@]2(C)Oc3c(C)c(O)c4c(O)c(c(/C=N/N5CCN(C/C=C/c6ccccc6)CC5)c(O)c4c3C2=O)NC(=O)/C(C)=C\C=C\[C@H](C)[C@H](O)[C@@H](C)[C@@H](O)[C@@H](C)[C@H](OC(C)=O)[C@@H]1C [T-9, 3-(4-cinnamyl-1-piperazinyl)-iminomethyl rifamycin SV, reference compound]
AUC [1]: 543 µg·h/mL
Cmax [1]: 8200 ng/mL
T1/2 [1]: 21.18 h
Tmax [1]: 6 h
solubility (Solubility): unsoluble
acute toxicity [2]: 4000 mg/kg
AUC [3]: 233 µg·h/mL
Cmax [3]: 2750 ng/mL
T1/2 [3]: 56.63 h
Tmax [3]: 2 h
T1/2 ([4]; p.o): 33.70 h
AUC [5]: 735 µg·h/mL
CL [5]: 0.092 mL·min/kg
Cmax [5]: 12400 ng/mL
Tmax [5]: 8 h
therapeutic activity in generalized tuberculosis (generalized tuberculosis): full organ sterilization

CO[C@H]1/C=C/O[C@@]2(C)Oc3c(C)c(O)c4c(O)c(c(/C=N/N5CCN(C)CC5)c(O)c4c3C2=O)NC(=O)/C(C)=C\C=C\[C@H](C)[C@H](O)[C@@H](C)[C@@H](O)[C@@H](C)[C@H](OC(C)=O)[C@@H]1C [Rifampicin]
acute toxicity [2]: 1500 mg/kg

sodium salt of 3-(4-cinnamyl-1-piperazinyl)-iminomethyl rifamycin SV [T-11]
AUC [1]: 671 µg·h/mL
Cmax [1]: 9200 ng/mL
T1/2 [1]: 20.04 h
Tmax [1]: 2 h
solubility (Solubility): soluble in water, methanol, ethanol, acetone and unsoluble in isopropanol
AUC [3]: 299 µg·h/mL
Cmax [3]: 2710 ng/mL
T1/2 [3]: 28.04 h
Tmax [3]: 2 h
T1/2 ([4]; i.v): 39.08 h
T1/2 ([4]; p.o): 38.02 h
CL [5]: 0.092 mL·min/kg
antibacterial activity in vitro [6]: good antibacterial activity
stability of the obtained water solutions [7]: good stability
